Data as given in publication PMC3850815, “Molecular details of ligand selectivity determinants in a promiscuous β-glucan periplasmic binding protein” (BMC Structural Biology, 2013).

Columns and labels:
[1] = molecular target: T1, tmCBP (Thermotoga maritima cellobiose-binding protein) (Thermotoga maritima, UniProt Q9WXN8); test: small-angle neutron scattering, ligand-induced closure; details: 5 mM ligand, 20 mM Tris pH 8.0, 40 mM NaCl, D2O, 20 °C
T1 construct: gene TM_0031; recombinant, E. coli BL21-RIL, nickel chelation purification (tagged); 582 residues modelled; ligand-free protein from Enfor's minimal medium

[2] = molecular target: T1, tmCBP (Thermotoga maritima cellobiose-binding protein); test: CD thermal denaturation at […] nm; details: Tm without ligand 94.8 °C; 1 mM ligand, 0.5 μM protein, 2 M guanidine hydrochloride, 10 mM Tris-HCl pH 8.0, 40 mM NaCl
[3] = molecular target: the molecule itself; test: small-angle neutron scattering (SANS); tmCBP at 4.2-16.7 mg/mL in 20 mM Tris pH 8.0, 40 mM NaCl, 100% D2O, 20°C; molecular mass from the intensity at zero scattering angle; apo protein, and with 5 mM cellobiose added (associations then alleviated)

Row | Molecule | Tm [2] [°C] | further results
1 | OC[C@H]1O[C@@H](O[C@H]2[C@H](O)[C@@H](O)C(O)O[C@@H]2CO)[C@H](O)[C@@H](O)[C@@H]1O (stereo partly shown) [cellobiose] | – | small-angle neutron scattering, ligand-induced closure [1]: Upon addition of ligand the protein undergoes large scale conformational changes
2 | OC[C@H]1O[C@@H](O[C@@H]2[C@@H](O)[C@H](O[C@@H]3[C@@H](O)[C@H](O[C@@H]4[C@@H](O)[C@H](O[C@H]5[C@H](O)[C@@H](CO)OC(O)[C@@H]5O)O[C@H](CO)[C@H]4O)O[C@H](CO)[C@H]3O)O[C@H](CO)[C@H]2O)[C@H](O)[C@@H](O)[C@@H]1O (stereo partly shown) [LR5, laminaripentaose] | 105.2 | –
3 | OC[C@H]1O[C@@H](O[C@H]2[C@H](O)[C@@H](CO)OC(O)[C@@H]2O)[C@H](O)[C@@H](O)[C@@H]1O (stereo partly shown) [LR2, laminaribiose] | 99.2 | –
4 | Thermotoga maritima cellobiose binding protein (natural protein, final crystal models hold 582 amino acids; expected mass 68.7 kDa; the apo (ligand-free) form was used for the SANS measurement of self-association; also called tmCBP) QVSLPREDTVYIGGALWGPATTWNLYAPQSTWGTDQFMYLPAFQYDLGRDAWIPVIAERYEFVDDKTLRIYIRPEARWSDGVPITADDFVYALELTKELGIGPGGGWDTYIEYVKAVDTKVVEFKAKEENLNYFQFLSYSLGAQPMPKHVYERIRAQMNIKDWINDKPEEQVVSGPYKLYYYDPNIVVYQRVDDWWGKDIFGLPRPKYLAHVIYKDNPSASLAFERGDIDWNGLFIPSVWELWEKKGLPVGTWYKKEPYFIPDGVGFVYVNNTKPGLSDPAVRKAIAYAIPYNEMLKKAYFGYGSQAHPSMVIDLFEPYKQYIDYELAKKTFGTEDGRIPFDLDMANKILDEAGYKKGPDGVRVGPDGTKLGPYTISVPYGWTDWMMMCEMIAKNLRSIGIDVKTEFPDFSVWADRMTKGTFDLIISWSVGPSFDHPFNIYRFVLDKRLSKPVGEVTWAGDWERYDNDEVVELLDKAVSTLDPEVRKQAYFRIQQIIYRDMPSIPAFYTAHWYEYSTKYWINWPSEDNPAWFRPSPWHADAWPTLFIISKKSDPQPVPSWLGTVDEGGIEIPTAKIFEDLQKATM | – | binding result [3]: binds
